Source: patent publication EP4603105A1, “PHARMACEUTICAL COMPOSITION CONTAINING CYCLIC COMPOUND HAVING SELECTIVE KRAS INHIBITORY EFFECT AGAINST HRAS AND NRAS” (CHUGAI SEIYAKU KABUSHIKI KAISHA, priority 2022, dated 2024)
*1 amine or outer side, *2 acyl side, *3 side chain or, on linkers, in order; H or OH if unused. Where a SMILES comes first, the peptide text is derived from it. Bridges are numbered along the chain shown (N, C = ends). [ ]: non-standard residue; d: D form. The star is where a group is joined. hPhe(3,5-F2-4-CF3) = N[C@@H](CCc1cc(F)c(C(F)(F)F)c(F)c1)C(=O)O; X23 = O=C([C@H](Cc1ccc(C(F)(F)F)cc1)N(CC1CCCC1)[*:1])[*:2]; hPhe(3-Cl-4-CF3) = N[C@@H](CCc1ccc(C(F)(F)F)c(Cl)c1)C(=O)O; NPrPhe(4-CF3) = CCCN[C@@H](Cc1ccc(C(F)(F)F)cc1)C(=O)O; X36 = CN([C@@H](CCCC=[*:3])C(=O)[*:2])[*:1]; dαMeAlg = C[C@](CC=[*:3])(N[*:1])C(=O)[*:2]; NMeGly(cPent) = CN[C@H](C(=O)O)C1CCCC1; Hyp = O=C(O)[C@@H]1C[C@@H](O)CN1; NMeD = CN[C@@H](CC(=O)O)C(=O)O; NMeL = CN[C@@H](CC(C)C)C(=O)O; Morpholide = C1CN(*)CCO1; Ac5c = NC1(C(=O)O)CCCC1; Aze = O=C(O)[C@@H]1CCN1; Sar = CNCC(=O)O

Columns and labels:
[1] = target: GDP-bound NRAS wild-type protein (Homo sapiens, UniProt P01111); test: Binding to NRAS by surface plasmon resonance (SPR), KD and KD ratio to KRAS
Outline: (§1)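 Compound binding is evaluated by SPR single-cycle kinetics, with concentrations added intermittently from low to high for 75 s each. Target surfaces carry GDP-loaded biotinylated Avi-RAS at about 100–300 RU, regenerated after each cycle; temperature 30°C. A 1:1 binding model gives KD.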

HRAS wild-type protein = HRAS wild-type protein (Homo sapiens, UniProt P01112); test: Binding to HRAS by surface plasmon resonance (SPR), KD and KD ratio to KRAS
Outline: as §1

[2] = system: human lung cancer strain NCI-H441; format: cell-based
Outline: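 Proliferation was scored by […] measured after the reagent was added to cultures kept at 37°C in 5% carbon dioxide.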

[3] = ratio of KD for GDP-bound NRAS wild-type protein to KD for KRAS
[4] = ratio of KD for HRAS wild-type protein to KD for KRAS
[5] = ratio of the KD value with respect to GDP-bound NRAS wild-type protein to the KD value with respect to KRAS
[6] = ratio of the KD value with respect to HRAS wild-type protein to the KD value with respect to KRAS
[7] = ratio of KD value for GDP-bound NRAS wild-type protein to KD value for KRAS (SPR)
[8] = ratio of KD value for HRAS wild-type protein to KD value for KRAS (SPR)

Sequence of GDP-bound NRAS wild-type protein (P01111 whole entry): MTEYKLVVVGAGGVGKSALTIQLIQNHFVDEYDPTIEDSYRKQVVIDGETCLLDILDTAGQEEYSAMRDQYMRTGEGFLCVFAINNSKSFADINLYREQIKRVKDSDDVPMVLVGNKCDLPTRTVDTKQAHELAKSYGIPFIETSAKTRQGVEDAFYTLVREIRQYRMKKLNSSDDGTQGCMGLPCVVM
Sequence of HRAS wild-type protein (P01112 whole entry): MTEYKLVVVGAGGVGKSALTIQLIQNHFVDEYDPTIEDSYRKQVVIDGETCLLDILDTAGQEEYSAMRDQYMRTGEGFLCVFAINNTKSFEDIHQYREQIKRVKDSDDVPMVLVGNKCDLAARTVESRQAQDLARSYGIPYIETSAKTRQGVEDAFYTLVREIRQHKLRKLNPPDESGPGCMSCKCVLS

SMILES	NRAS /KRAS [1, 3]	HRAS /KRAS (HRAS wild-type protein; [4])	IC50 [2] [nM]	NRAS /KRAS [1, 5]	HRAS /KRAS (HRAS wild-type protein; [6])	NRAS /KRAS [1, 7]	HRAS /KRAS (HRAS wild-type protein; [8])
CCCN1C(=O)CN(C)C(=O)CN(C)C(=O)[C@H]([C@@H](C)CC)NC(=O)[C@H](CC(C)C)N(C)C(=O)C[C@@H](C(=O)N2CCOCC2)N(C)C(=O)[C@H](C2CCCC2)N(C)C(=O)C2(CCCC2)NC(=O)[C@@H]2CCN2C(=O)[C@H](CCc2ccc(C(F)(F)F)c(Cl)c2)NC(=O)CN(C)C(=O)[C@@H]1Cc1ccc(C(F)(F)F)cc1 [PP0260] ([NMeL]I[Sar][Sar][NPrPhe(4-CF3)][Sar][hPhe(3-Cl-4-CF3)][Aze][Ac5c][NMeGly(cPent)][NMeD]-Morpholide; lactam N-11)	B (a compound having 3 or more and less than 10 is denoted as B)	C (A compound having a KD ratio of 0.1 or more and less than 3 is denoted as C)	16.8				
CCC[C@H]1C(=O)N[C@@H]([C@@H](C)CC)C(=O)N(C2CC2)CC(=O)N(C)[C@H]2C/C=C\CCN(C2=O)[C@@H](Cc2ccc(C)cc2)C(=O)N(C)CC(=O)N[C@@H](CCc2cc(Cl)c(C(F)F)c(Cl)c2)C(=O)N2C[C@H](OCC)C[C@H]2C(=O)NC2(CC(C)(C)C2)C(=O)N(C)[C@@H](C2CCCC2)C(=O)N(C)[C@H](C(=O)N(C)C)CC(=O)N1C [PP2877]	A (a compound having 10 or more and less than 20 is denoted as A)	A (a compound having 10 or more and less than 20 is denoted as A)	96				
CCO[C@@H]1C[C@H]2C(=O)NC3(CC(C)(C)C3)C(=O)N(C)[C@@H](C3CCCC3)C(=O)N(C)[C@H](C(=O)N3CCOCC3)CC(=O)N(C)[C@@H](COC)C(=O)N[C@@H]([C@@H](C)CC)C(=O)N(C)CC(=O)N(C)[C@H]3CCCCCN(C3=O)[C@@H](Cc3ccc(C(F)(F)F)cc3)C(=O)N(C)CC(=O)N[C@@H](CCc3cc(F)c(C(F)(F)F)c(F)c3)C(=O)N2C1 [PP0844]	B (a compound having 3 or more and less than 10 is denoted as B)	B (a compound having 3 or more and less than 10 is denoted as B)	50.2				
CCC[C@H]1C(=O)N[C@@H]([C@@H](C)CC)C(=O)N(C)CC(=O)N(C)[C@H]2C/C=C\CCN(C2=O)[C@@H](Cc2ccc(C)cc2)C(=O)N(C)CC(=O)N[C@@H](CCc2ccc(Cl)c(C(F)(F)F)c2)C(=O)N2C[C@H](OCC)C[C@H]2C(=O)NC2(CC(C)(C)C2)C(=O)N(C)[C@@H](C(CC)CC)C(=O)N(C)[C@H](C(=O)N(C)C)CC(=O)N1C [PP2787]	AA (a compound having 20 or more is denoted as AA)	A (a compound having 10 or more and less than 20 is denoted as A)	22.1				
CCO[C@@H]1C[C@H]2C(=O)NC3(CC(C)(C)C3)C(=O)N(C)[C@@H](C(CC)CC)C(=O)N(C)[C@H](C(=O)N(C)C)CC(=O)N(C)[C@@H](CC3CCC3)C(=O)N[C@@H]([C@@H](C)CC)C(=O)N(C)CC(=O)N(C)[C@H]3C/C=C\CCN(C3=O)[C@@H](Cc3ccc(C)cc3)C(=O)N(C)CC(=O)N[C@@H](CCc3ccc(Cl)c(Cl)c3)C(=O)N2C1 [PP2120]			75.5	AA (a compound having 20 or more is denoted as AA)	A (a compound having 10 or more and less than 20 is denoted as A)		
CCO[C@@H]1C[C@H]2C(=O)NC3(CC(C)(C)C3)C(=O)N(C)[C@@H](C3CCCC3)C(=O)N(CC)[C@H](C(=O)N(C)C)CC(=O)N(C)[C@@H](CC)C(=O)N[C@@H]([C@@H](C)CC)C(=O)N(C)CC(=O)N(C)[C@H]3C/C=C\CCN(C3=O)[C@@H](Cc3ccc(C(F)(F)F)cc3)C(=O)N(C)CC(=O)N[C@@H](CCc3cc(F)c(C(F)(F)F)c(F)c3)C(=O)N2C1 [PP1768]			4.9			A (a compound having 10 or more and less than 20 is denoted as A)	A (a compound having 10 or more and less than 20 is denoted as A)
CCO[C@@H]1C[C@H]2C(=O)NC3(CC(C)(C)C3)C(=O)N(C)[C@@H](C3CCCC3)C(=O)N(C)[C@H](C(=O)N(C)C)CC(=O)N(C)[C@@H](CC)C(=O)N[C@@H]([C@@H](C)CC)C(=O)N(C)CC(=O)N(C)[C@H]3C/C=C\CCN(C3=O)[C@@H](Cc3ccc(C(F)(F)F)cc3)C(=O)N(C)CC(=O)N[C@@H](CCc3ccc(C(F)(F)F)c(Cl)c3)C(=O)N2C1 [PP1746]			1.9			A (a compound having 10 or more and less than 20 is denoted as A)	A (a compound having 10 or more and less than 20 is denoted as A)
CC[C@H](C)[C@@H]1NC(=O)[C@H](CC(C)C)N(C)C(=O)C[C@@H](C(=O)N2CCOCC2)N(C)C(=O)[C@H](C2CCCC2)N(C)C(=O)C2(CCCC2)NC(=O)[C@@H]2CCCN2C(=O)[C@H](CCc2ccc(C(F)(F)F)c(Cl)c2)NC(=O)CN(C)C(=O)[C@H](Cc2ccc(C(F)(F)F)cc2)N(CC2CCCC2)C(=O)CN(C)C(=O)CN(C)C1=O [PP0124] ([NMeL]I[Sar][Sar][X23][Sar][hPhe(3-Cl-4-CF3)]P[Ac5c][NMeGly(cPent)][NMeD]-Morpholide; lactam N-11)	C (A compound having a KD ratio of 0.1 or more and less than 3 is denoted as C)	C (A compound having a KD ratio of 0.1 or more and less than 3 is denoted as C)	48.8				
CC[C@H](C)[C@@H]1NC(=O)[C@H](CC(C)C)N(C)C(=O)C[C@@H](C(=O)N(C)C)N(C)C(=O)[C@H](C2CCCC2)N(C)C(=O)C2(CCCC2)NC(=O)[C@@H]2CC(F)(F)CN2C(=O)[C@H](CCc2cc(F)c(C(F)(F)F)c(F)c2)NC(=O)CN(C)C(=O)[C@H](Cc2ccc(C(F)(F)F)cc2)N2CCCC[C@@H](C2=O)N(C)C(=O)CN(C)C1=O [PP0576]			2.4	C (A compound having a KD ratio of 0.1 or more and less than 3 is denoted as C)	B (a compound having 3 or more and less than 10 is denoted as B)		
CCO[C@@H]1C[C@H]2C(=O)NC3(CCC3)C(=O)N(C)[C@@H](CC(F)F)C(=O)N(C)[C@H](C(=O)N3CCOCC3)CC(=O)N(C)[C@@H](CC(C)C)C(=O)N[C@@H]([C@@H](C)CC)C(=O)N(C)CC(=O)N(C)[C@H]3CCCCCN(C3=O)[C@@H](Cc3ccc(C(F)(F)F)cc3)C(=O)N(C)CC(=O)N[C@@H](CCc3cc(F)c(C(F)(F)F)c(F)c3)C(=O)N2C1 [PP0822]	B (a compound having 3 or more and less than 10 is denoted as B)	B (a compound having 3 or more and less than 10 is denoted as B)	1990				
CC[C@H](C)[C@@H]1NC(=O)[C@H](CC(C)C)N(C)C(=O)C[C@@H](C(=O)N2CCOCC2)N(C)C(=O)[C@H](C2CCCC2)N(C)C(=O)C2(CCC2)NC(=O)[C@@H]2C[C@@H](OC)CN2C(=O)[C@H](CCc2cc(F)c(C(F)(F)F)c(F)c2)NC(=O)CN(C)C(=O)[C@H](Cc2ccc(C(F)(F)F)cc2)N2CCCCC[C@@H](C2=O)N(C)C(=O)CN(C)C1=O [PP1016]	A (a compound having 10 or more and less than 20 is denoted as A)	B (a compound having 3 or more and less than 10 is denoted as B)	61.2				
CCCN1C(=O)CN(C)C(=O)CN(C)C(=O)[C@H]([C@@H](C)CC)NC(=O)[C@@H]2CCCC=CC[C@@](C)(NC(=O)[C@@H]3C[C@@H](OCC)CN3C(=O)[C@H](CCc3cc(F)c(C(F)(F)F)c(F)c3)NC(=O)CN(C)C(=O)[C@@H]1Cc1ccc(C(F)(F)F)cc1)C(=O)N(C)[C@@H](C1CCCC1)C(=O)N(C)[C@H](C(=O)N1CCOCC1)CC(=O)N2C [PP0901] ([X36]I[Sar][Sar][NPrPhe(4-CF3)][Sar][hPhe(3,5-F2-4-CF3)][Hyp](Et)[dαMeAlg][NMeGly(cPent)][NMeD]-Morpholide; staple 1-9; lactam N-11)	B (a compound having 3 or more and less than 10 is denoted as B)	B (a compound having 3 or more and less than 10 is denoted as B)	332				
CCCN(C)C(=O)[C@@H]1CC(=O)N(C)[C@@H](CC(F)F)C(=O)N[C@@H]([C@@H](C)CC)C(=O)N(C)CC(=O)N(C)[C@H]2C/C=C\CCN(C2=O)[C@@H](Cc2ccc(C(F)(F)F)cc2)C(=O)N(C)CC(=O)N[C@@H](CCc2cc(F)c(C(F)(F)F)c(F)c2)C(=O)N2CCC[C@H]2C(=O)NC2(CC(C)(C)C2)C(=O)N(C)[C@@H](C2CCCC2)C(=O)N1C [PP1721]			10			A (a compound having 10 or more and less than 20 is denoted as A)	A (a compound having 10 or more and less than 20 is denoted as A)
CCO[C@@H]1C[C@H]2C(=O)NC3(CCC3)C(=O)N(C)[C@@H](CC(F)F)C(=O)N(C)[C@H](C(=O)N3CCOCC3)CC(=O)N(C)[C@@H](CC(C)C)C(=O)N[C@@H]([C@@H](C)CC)C(=O)N(C)CC(=O)N(C)[C@H]3CCCCN(C3=O)[C@@H](Cc3ccc(C(F)(F)F)cc3)C(=O)N(C)CC(=O)N[C@@H](CCc3cc(F)c(C(F)(F)F)c(F)c3)C(=O)N2C1 [PP0813]	C (A compound having a KD ratio of 0.1 or more and less than 3 is denoted as C)	B (a compound having 3 or more and less than 10 is denoted as B)	90.3				
